These results are taken from patent US8129365B2, “Water-soluble, fluorescent compounds for detection of potassium ions” (The Regents of the University of California, priority 2005, dated 2012).

“Also recorded” adds a separate entry of the source. Some results are limits rather than exact numbers.

A short description of series [1]: Stop-flow measurement of TAC-Red fluorescence response. It is filed as physicochemical. The following applies: K^+ increased from 0 to 5 mM. The procedure:
The TAC-Red fluorescence response was rapid when K^+ was increased from 0 to 5 mM in a stop-flow measurement (FIG. 1, panel c, inset), with greater than 90% of the fluorescence increase occurring in under 1 ms.

In another series the test system is cell viability or growth. The experiment in a line: Cell viability or growth. It is filed as cell-based. An excerpt:
(§1) TAC-Red fluorescence was not sensitive to divalent cations (Ca^++ or Mg^++) or various anions, or to pH in the range 6-8 (FIG. 1, panel e).

The next series is described as follows: Water solubility. It is filed as physicochemical.
For a further series, the system named is brain cortex ECS. Description: TAC-Red [K^+]o measurements in brain cortex (spreading depression). It is filed as in vivo, mice. The following applies: freshly cut brain slices, 5 min transdural loading with about 50 μM. The procedure:
TAC-Red [K^+]o measurements in brain cortex. Wildtype and AQP4 null mice in a CD1 genetic background (30-35 g body weight/age 10-12 weeks) were used (described in Ma et al. Ma et al. J. Clin. Invest. 100, 957-962 (1997)). These mice are phenotypically normal at baseline and have normal brain architecture; however they manifest altered brain swelling in response to cytotoxic and vasogenic forms of edema. Mice were anesthetized with 2,2,2-tribromoethanol (125 mg/kg, intraperitoneal (ip)) and the head was immobilized in a standard mouse stereotactic frame. Body temperature was maintained at 36-37° C. using a heating pad. The skull was exposed by a midline skin incision. A 2.7 mm diameter circular area of the thin, semi-translucent skull bone located 0.5 mm lateral to the midline and 1 mm posterior to the bregma was removed using a microdrill under microscope to expose intact dura with underlying brain. […]
Fluorescence was measured using a 1.6× objective lens (working distance 24 mm, numerical aperture 0.21), and custom filter set for TAC-Red (HQ, Chroma). […] Fluorescence was imaged using a 14-bit 1024×1024 pixel cooled CCD camera (CoolSnap HQ, Photometrics). […]
Image analysis. […] Half-times (t1/2) for the increasing and decreasing phases of TAC-Red fluorescence were determined by exponential regression analysis. […]

For series [2], the system named is Fisher rat thyroid epithelial cell monolayers. Description: Transport across epithelial cell monolayers. It is filed as in vitro ADME.
Description: as §1

Series [3] can be described thus: Fluorescence titrations of TAC-Red (spectroscopic analysis). It is filed as physicochemical. The procedure: The TAC-Red compound was subjected to spectroscopic analysis. Fluorescence measurements were carried out by standard procedures using a FluoroMax-3 fluorimeter. Fluorescence titrations were carried out at 540 nm excitation and 574 nm emission wavelengths using aqueous solution containing about 7 μM at pH 7.0 (buffered with 5 mM HEPES) unless titrated with NaOH/HCl to other pH.
Spectra in FIG. 1, Panel b were obtained using balanced KCl/choline Cl to keep ionic strength constant at 300 mM. The titration in FIG. 1, panel c was done by adding indicated NaCl/KCl from concentrated stock solutions. The data in FIG. 1, panel d were obtained at constant ionic strength (300 mM) using NaCl or choline Cl to balance the KCl.

The subject of series [4] is CHO-K1 cells. The experiment in a line: K^+ efflux measured by TAC-Red fluorescence, plate reader assay. It is filed as cell-based. The following applies: 10 μM preincubation. The method, then: (§2) TAC-Red as an indicator for measurement of K^+ channel function for high-throughput screening applications. CHO-K1 cells (ATCC CCL-61) were cultured in Ham's F12 media supplemented with 10% fetal bovine serum, 100 U/ml penicillin and 100 μg/ml streptomycin at 37° C. in a 5% CO2/95% air atmosphere and used at ˜90% confluence. For measurements using epifluorescence microscopy cells were grown until reaching confluency on 18-mm diameter round glass coverslips. For fluorescence plate reader assays cells were cultured on Costar 96-well black plates with a clear flat bottom and used when just confluent. […]
Plate reader assay: Measurements were done using a Fluostar plate reader (BMG LabTechnologies) with syringe pump for automated solution addition. […] The plate was loaded onto plate reader and after 6 s of fluorescence measurement 30 μl of TAC-Red (150 μM) in 0 K^+ buffer was added via syringe pump. TAC-Red fluorescence was excited using an HQ545/30 filter (Chroma) and emitted fluorescence was detected through a HQ585/30 filter.

Series [5] deals with CHO-K1 cells. The experiment in a line: K^+ efflux in CHO cells measured by TAC-Red fluorescence, fluorescence microscopy. It is filed as cell-based. The following applies: 10 μM pre-incubation, epifluorescence microscopy. The procedure:
as §2
Fluorescence microscopy: For most experiments cells on coverslips were incubated in 1 ml high K^+ buffer for 2 min prior to experiments. […] The washed cells were immediately placed cell-side down on the slide and fluorescence measured continuously. TAC-Red fluorescence was excited at 545±30 nm and detected through a 610±75 nm filter (570 nm dichroic) using a long working distance 25× air objective lens.
TAC-Red was used as an indicator of extracellular K^+, such that the rate of initial K^+ efflux into a 0 K^+ buffer could be measured. […]

On to `COCCOc1cc(-c2c3ccc(=[N+](C)C)cc-3oc3cc(N(C)C)ccc23)ccc1N1CCOc2cc(C)ccc2N2CCOCCOCCN(CCOCCOCC2)c2ccc(C)cc2OCC1.[Cl-]` [TAC-Red, {6-Dimethylamino-9-[4-(6,7,9,10,12,13,20,21,23,24-decahydro-2,17-dimethyl-5,14-(ethanoxyethanoxyethano)-5H,14H,22H-dibenzo[h,q][1,4,10,16,7,13,19]tetraoxatriazacyclo-heneicosin-22-yl)-3-(2-methoxyethoxy)phenyl]xanthen-3-ylidene}dimethylammonium chloride], for which, in series [1], the “Share of fluorescence increase occurring in under 1 ms” value is “greater than 90%”. Further, in the series with cell viability or growth, the “Effect on cell viability or growth” value is given as “did not affect”. Also, the “Water solubility” value in the series “Water solubility” is on record as “water soluble”. In addition, the “Depth of TAC-Red staining beneath the brain surface” value with brain cortex ECS is reported as more than 500 μm. Moreover, the “Membrane permeability” value in series [2] is reported as “membrane impermeant; also recorded: membrane-impermeable”. In series [2] (in 6 hours), the “Transport across cell monolayers” value is less than 1%. Besides, the “Effect of Na^+ on TAC-Red fluorescence vs. K^+” value in series [3] (150 mM Na^+ in place of 150 mM choline^+) was “did not affect”. Besides, the “Effect of Na^+ on TAC-Red fluorescence” value in series [3] (50 and 150 mM Na^+) was “increased slightly”. The “Sensitivity of fluorescence to divalent cations” value in series [3] (Ca^++ or Mg^++) is “not sensitive”. The TAC-Red fluorescence increase result in series [3] (K^+ concentration increasing from 0-200 mM, 540 nm excitation, 574 nm emission, pH 7.0) is reported as “more than 23 fold”. Further, the “K^+ sensitivity of fluorescence” value in series [3] (K^+ in the range 0 to >100 mM) is given as “highly sensitive”; in series [3] (K^+ range 0-40 mM expected in the brain ECS), “excellent K^+ sensitivity”. In addition, in series [3] (at 50 mM), the “K^+-to-Na^+ selectivity ratio” value was “about 37”. In addition, the “Specificity in titrations with monovalent cations” value in series [3] (monovalent cations) was “specificity for K^+, Rb^+ and Cs^+ over Na^+ and Li^+”. The “Sensitivity of fluorescence to pH” value in series [3] (pH in the range 6-8) is “not sensitive”. Besides, in series [3] (various anions), the “Sensitivity of fluorescence to various anions” value is given as “not sensitive”.

For `CC(C)[C@@H]1NC(=O)[C@H](C)OC(=O)[C@@H](C(C)C)NC(=O)[C@@H](C(C)C)OC(=O)[C@H](C(C)C)NC(=O)[C@H](C)OC(=O)[C@@H](C(C)C)NC(=O)[C@@H](C(C)C)OC(=O)[C@H](C(C)C)NC(=O)[C@H](C)OC(=O)[C@@H](C(C)C)NC(=O)[C@@H](C(C)C)OC1=O` [valinomycin], the “Effect on K^+ efflux” value with CHO-K1 cells [4] and in the series on CHO-K1 cells [5] was “increased K^+ efflux” throughout.
